Among the data in patent US9776972B2, “Pyrazole derivatives as arginine methyltransferase inhibitors and uses thereof” (priority 2013, dated 2017) are IC50 values, retold here.

Molecules are shown by their SMILES.

In the first test the target is T1, human PRMT6 (Homo sapiens, UniProt Q96LA8).
T1 construct: Flag-PRMT6-His; made in house; host or cells: HEK 293F cells (BacMam baculovirus)
T1 sequence (Q96LA8 with tags, fused parts or gaps): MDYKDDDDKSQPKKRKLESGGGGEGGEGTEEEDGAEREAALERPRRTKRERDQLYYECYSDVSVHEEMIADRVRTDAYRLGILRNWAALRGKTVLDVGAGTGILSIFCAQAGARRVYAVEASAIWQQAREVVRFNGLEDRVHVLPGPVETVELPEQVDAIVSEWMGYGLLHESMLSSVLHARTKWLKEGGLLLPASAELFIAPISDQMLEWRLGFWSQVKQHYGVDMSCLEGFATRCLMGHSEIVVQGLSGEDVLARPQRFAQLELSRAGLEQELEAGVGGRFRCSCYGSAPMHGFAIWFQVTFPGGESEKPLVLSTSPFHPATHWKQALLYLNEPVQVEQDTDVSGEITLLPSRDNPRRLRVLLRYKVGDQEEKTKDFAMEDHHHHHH
Kind of test: PRMT6 Biochemical Assay (3H-SAM Flashplate, peptide substrate). To be noted: Biochemical IC50 PRMT6, single experiment or average of multiple experiments. The essentials:
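Methylation of a biotin-tagged H4 (36-50) peptide by ³H-SAM was quantified by streptavidin Flashplate capture and scintillation counts (dpm/cpm). Before SAM/peptide addition, Flag-PRMT6-His was preincubated with compound for 30 min at room temperature in Bicine buffer, pH 7.6.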
As a reminder, the IC50 is the concentration that gives 50% inhibition. Turning to `CNCCN(C)Cc1c[nH]nc1-c1cccc(OC(F)(F)F)c1` [Compound 39], it took 37.8 nM to reach half-maximal inhibition (IC50). As to `CN(CCN)Cc1c[nH]nc1-c1ccc(OC(F)F)cc1` [Compound 94], the IC50 was determined as 8.02 nM.

Take `CN(CCN)Cc1c[nH]nc1-c1ccc(Cl)cc1` [Compound 95]: the IC50 was determined as 5.61 nM. In turn, `CNCCN(C)Cc1cnn(CC2CCOCC2)c1-c1ccc(F)cc1` [Compound 12] registered an IC50 of 191 nM.

With `CN(CCN)Cc1nn(C)cc1-c1ccc(C#N)cc1` [Compound 83], the IC50 was determined as 52.8 nM. The compound `Cc1ccc(-c2n[nH]cc2CN(C)CCN)c(Cl)c1` [Compound 90] had an IC50 of 10.2 nM. With `Cc1ccc(Cl)c(-c2n[nH]cc2CN(C)CCN)c1` [Compound 91], half-maximal inhibition (IC50) was put at 237 nM. Compound `CN(CCN)Cc1c[nH]nc1-c1ccc(Cl)cc1Cl` [Compound 86] yielded an IC50 of 9.16 nM.

As to `CN(CCN)Cc1c[nH]nc1-c1ccc(F)cc1Cl` [Compound 89], the IC50 was 13.5 nM. As for `CN(CCN)Cc1c[nH]nc1-c1ccc(N2CCNCC2)cc1` [Compound 82], 129 nM corresponded to half-maximal inhibition (IC50). Still for that read-out and setting: as for `CC(C)Oc1ccc(-c2n[nH]cc2CN(C)CCN)cc1Cl` [Compound 168], the figure is 11 nM. The compound `CN(CCN)Cc1c[nH]nc1-c1ccccc1` [Compound 73] returned an IC50 of 25.9 nM. `CN(CCN)Cc1cnn(C2COC2)c1-c1ccc(F)cc1` [Compound 81] returned an IC50 of 105 nM.

In turn, `CN(CCN)Cc1c[nH]nc1-c1ccc(C(C)(C)C)cc1` [Compound 74] came in with an IC50 of 37.8 nM. Same read-out and setting: as for `CN(CCN)Cc1c[nH]nc1-c1ccccc1F` [Compound 72], the figure is 62.9 nM. Turning to `CN(CCN)Cc1n[nH]cc1-c1ccc(F)cc1` [Compound 69], the IC50 was found to be 34.2 nM.

Take `NCCN(Cc1c[nH]nc1-c1ccc(F)cc1)C1CC1` [Compound 78]: inhibition was half-maximal at 66.5 nM (IC50). Same read-out and setting: under `COCCn1cc(CN(C)CCN)c(-c2ccc(F)cc2)n1` [Compound 5] stands 467 nM; under `Cc1ccc(-c2n[nH]cc2CN(C)CCN)c(C)c1` [Compound 88], 29 nM; under `CN(CCN)Cc1c[nH]nc1-c1ccc(C(F)(F)F)cc1C(F)(F)F` [Compound 85], 701 nM.

The compound `CNCCN(C)Cc1c[nH]nc1-c1ccccc1F` [Compound 48] displayed a half-inhibitory concentration (IC50) of 44.1 nM. On to `CN(CCN)Cc1cnn(C)c1-c1ccc(F)cc1` [Compound 4], for which the IC50 stood at 76.1 nM. On the same count and under the same terms, under `CN(CCN)Cc1c[nH]nc1-c1cccc(F)c1` [Compound 71] stands 8.16 nM. Still for that read-out and setting: under `CN(CCN)Cc1c[nH]nc1-c1ccc(C(F)(F)F)cc1` [Compound 92] stands 6.45 nM; under `CN(CCN)Cc1cn(C2COC2)nc1-c1ccc(F)cc1` [Compound 77], 101 nM; under `CN(CCN)Cc1c[nH]nc1-c1cccc(C#N)c1` [Compound 70], 18.9 nM.

Turning to `COc1ccc(-c2n[nH]cc2CN(C)CCN)c(OC)c1` [Compound 87], the IC50 was 103 nM.

`CN(CCN)Cc1c[nH]nc1-c1ccc(OC(F)(F)F)cc1` [Compound 93] returned an IC50 of 10.7 nM.

`CC(C)N(CCN)Cc1c[nH]nc1-c1ccc(F)cc1` [Compound 75] had an IC50 of 1640 nM.

In the case of `CN(CCN)Cc1cn(C)nc1-c1ccc(F)cc1` [Compound 3], the IC50 worked out at 27 nM.

Staying with this test, now noted: single experiment or average of multiple experiments; read-out: Biochemical IC50 PRMT6.
As for `CNCCN(C)Cc1c[nH]nc1-c1ccc(CC#N)cc1` [Compound 34], the IC50 was 11.3 nM. Consider `CN(CCN)Cc1c[nH]nc1-c1ccc(F)cc1` [Compound 1], for which the IC50 was found to be 11 nM. `CNCCN(C)Cc1c[nH]nc1-c1cccc(NC(C)=O)c1` [Compound 42]: the half-inhibitory concentration (IC50) was 47.6 nM.

For the compound `CNCCN(C)Cc1c[nH]nc1-c1ccccc1NS(C)(=O)=O` [Compound 41], the IC50 came out at 8140 nM. Consider `CNCCN(C)Cc1c[nH]nc1-c1ccc(-c2ccccc2)cc1` [Compound 47], for which the half-inhibitory concentration (IC50) is 4.76 nM.

Turning to `CNCCN(C)Cc1c[nH]nc1-c1cccc(N)c1` [Compound 32], the IC50 came to 22.2 nM. Same read-out and setting: as for `CNCCN(C)Cc1c[nH]nc1-c1ccccc1O` [Compound 35], the figure is 457 nM; as for `CNCCN(C)Cc1c[nH]nc1-c1cccc(C(C)=O)c1` [Compound 44], 39.4 nM.
